From patent US20250059180A1 (DONG WHA PHARM. CO., LTD., priority 2022, published 2025) come the findings set out here.

Molecules are shown by their SMILES.

The test system of the experiment is Pfeiffer cells, lymphoma cells having EZH2 mutation (A677G). Kind of experiment: Proliferation inhibition of cells of hematologic malignancies (CCK-8, 11 days). Particulars: 11 days culture, read-out: Cell proliferation inhibitory effect (IC50). It is filed as cell-based. The procedure: The growth inhibitory activity of 1,3-benzodioxole derivative compounds represented by chemical formula I of the present invention against Pfeiffer cells, which are lymphoma cells having EZH2 mutation (A677G), was evaluated.
Pfeiffer was cultured using RPMI1640 containing 10% fetal bovine serum. The cells were inoculated into wells of a 96-well culture dish at 10,000 cells each, and cultured for 11 days after treating with the test material for each concentration. For 11 days, the test material was replaced every three to four days. After culturing, the cells were treated with a cell counting kit-8 (CCK-8) reagent for each well, absorbance was measured at 450 nm, and IC50 values for cell proliferation were obtained through curve fitting of non-linear regression in the GraphPad program (GraphPad Prism 5.0 software).

Consider `CSc1cc(C)[nH]c(=O)c1CNC(=O)c1cc(-c2ccc(N3C[C@@H](C)O[C@@H](C)C3)nc2)c2c(c1C)OC(C)(C1CCN(CC(F)(F)F)CC1)O2` (single isomer, unassigned) [Compound 44], for which the IC50 was not above 10 nM.

Turning to `CSc1cc(C)[nH]c(=O)c1CNC(=O)c1cc(-c2ccc(N3C[C@@H](C)O[C@@H](C)C3)nc2)c2c(c1C)OC(C)(C1CCN(CC(F)(F)F)CC1)O2` (single isomer, unassigned) [Compound 45], the IC50 was not below 100 nM.

Take `CSc1cc(C)[nH]c(=O)c1CNC(=O)c1cc(-c2ccc(N3C[C@@H](C)O[C@@H](C)C3)nc2)c2c(c1C)OC(C)(C1CCN(CC(F)F)CC1)O2` (single isomer, unassigned) [Compound 47]: the IC50 was not above 10 nM.

Turning to `CSc1cc(C)[nH]c(=O)c1CNC(=O)c1cc(-c2ccc(N3C[C@@H](C)O[C@@H](C)C3)nc2)c2c(c1C)OC(C)(C1CCN(CC(F)F)CC1)O2` (single isomer, unassigned) [Compound 48], the IC50 is not below 100 nM.

Turning to `CCN1CCC(C2(C)Oc3c(-c4ccc(N5C[C@@H](C)O[C@@H](C)C5)nc4)cc(C(=O)NCc4c(SC)cc(C)[nH]c4=O)c(C)c3O2)CC1` (single isomer, unassigned) [Compound 49], the IC50 was not above 10 nM.

On to `CCN1CCC(C2(C)Oc3c(-c4ccc(N5C[C@@H](C)O[C@@H](C)C5)nc4)cc(C(=O)NCc4c(SC)cc(C)[nH]c4=O)c(C)c3O2)CC1` (single isomer, unassigned) [Compound 50], for which the IC50 was not below 100 nM.

On to `CSc1cc(C)[nH]c(=O)c1CNC(=O)c1cc(-c2ccc(N3C[C@@H](C)O[C@@H](C)C3)nc2)c2c(c1C)OC(C)(C1CCN(C(C)C)CC1)O2` (single isomer, unassigned) [Compound 51], for which the IC50 is not above 10 nM.

Regarding `CSc1cc(C)[nH]c(=O)c1CNC(=O)c1cc(-c2ccc(N3C[C@@H](C)O[C@@H](C)C3)nc2)c2c(c1C)OC(C)(C1CCN(C(C)C)CC1)O2` (single isomer, unassigned) [Compound 52], the IC50 was not below 100 nM.

As for `CSc1cc(C)[nH]c(=O)c1CNC(=O)c1cc(-c2ccc(N3C[C@@H](C)O[C@@H](C)C3)nc2)c2c(c1C)OC(C)(C1CCN(C3CCCCC3)CC1)O2` (single isomer, unassigned) [Compound 53], the IC50 is not above 10 nM.

Turning to `CSc1cc(C)[nH]c(=O)c1CNC(=O)c1cc(-c2ccc(N3C[C@@H](C)O[C@@H](C)C3)nc2)c2c(c1C)OC(C)(C1CCN(C3CCCCC3)CC1)O2` (single isomer, unassigned) [Compound 54], the IC50 was not below 100 nM.

`CSc1cc(C)[nH]c(=O)c1CNC(=O)c1cc(-c2ccc(N3C[C@@H](C)O[C@@H](C)C3)nc2)c2c(c1C)OC(C)(C1CCN(CCc3ccccc3)CC1)O2` (single isomer, unassigned) [Compound 55]: the IC50 was not above 10 nM.

For `CSc1cc(C)[nH]c(=O)c1CNC(=O)c1cc(-c2ccc(N3C[C@@H](C)O[C@@H](C)C3)nc2)c2c(c1C)OC(C)(C1CCN(CCc3ccccc3)CC1)O2` (single isomer, unassigned) [Compound 56], the IC50 was not below 100 nM.

Regarding `CSc1cc(C)[nH]c(=O)c1CNC(=O)c1cc(-c2ccc(N3C[C@@H](C)O[C@@H](C)C3)nc2)c2c(c1C)OC(C)(C1CCN(CCCC(F)(F)F)CC1)O2` (single isomer, unassigned) [Compound 57], the IC50 is not above 10 nM.

On to `CSc1cc(C)[nH]c(=O)c1CNC(=O)c1cc(-c2ccc(N3C[C@@H](C)O[C@@H](C)C3)nc2)c2c(c1C)OC(C)(C1CCN(CCCC(F)(F)F)CC1)O2` (single isomer, unassigned) [Compound 58], for which the IC50 is not below 100 nM.

As to `CSc1cc(C)[nH]c(=O)c1CNC(=O)c1cc(-c2ccc(N3C[C@@H](C)O[C@@H](C)C3)nc2)c2c(c1C)OC(C)(C1CCN(C(=O)C(F)(F)F)CC1)O2` (single isomer, unassigned) [Compound 59], the IC50 is not above 10 nM.

Consider `CSc1cc(C)[nH]c(=O)c1CNC(=O)c1cc(-c2ccc(N3C[C@@H](C)O[C@@H](C)C3)nc2)c2c(c1C)OC(C)(C1CCN(C(=O)C(F)(F)F)CC1)O2` (single isomer, unassigned) [Compound 60], for which the IC50 was not below 100 nM.
